# Results from publication PMC7156458, “Synthetic biology based construction of biological activity-related library of fungal decalin-containing diterpenoid pyrones” (Nature Communications, 2020).
# Like-named read-outs stand apart in the source and are kept apart here.
# What was measured:
# MCF-7 cells = test: cell cytotoxic effects against MCF-7 cells (72 h), A490; format: cell-based, human; settings: for A490 ave: MCF-7, 72 h
# DL1 cells = test: cytotoxicity in Drosophila DL1 cells; format: cell-based; settings: DL1 cells; for % viability, viability 1: replicate 1, relative to DMSO 1%; for % viability, viability 2: replicate 2, relative to DMSO 1%; for IC50: cytotoxicity
# Experimental: (§1) We screened the DDPs on the Drosophila assay system for cytotoxicity, inhibitory activity of innate immune signalling and insecticidal activity. The cytotoxicity of the DDPs was evaluated using two cell lines, embryonic macrophage-derived DL1 cells[58]–[60] and larval blood cell-derived l(2)mbn cells, and their IC50 values are listed in Supplementary Table 23.
# l(2)mbn cells = test: cytotoxicity in Drosophila l(2)mbn cells; format: cell-based; settings: for Luminescence Raw1: replicate 1; for % viability, viability 1: replicate 1, relative to DMSO 1%; for Luminescence Raw2: replicate 2; for % viability, viability 2: replicate 2, relative to DMSO 1%
# Experimental: as §1
# [1] = system: human immunodeficiency virus-1 (HIV-1); test: anti-HIV MAGI assay; format: cell-based; settings: Human immunodeficiency virus 1, MAGI, read-out: Avg. EC50 (nM), anti-HIV; average of numeric determinations
# Description: We examined the inhibitory activities of DDPs against various species of bacteria (both gram-negative and gram-positive bacteria), fungi and viruses. […] In contrast, preliminary screening of the DDPs for anti-viral agents with hepatitis B virus (HBV), measles virus (MV), Epstein-Barr virus (EBV), herpes simplex virus (HSV) and human immunodeficiency virus-1 (HIV-1) indicated their selective inhibition of HIV.
# MAGI cells = test: cytotoxicity in the anti-HIV assay (CC50); format: cell-based; settings: single determinations
# [2] = Homo sapiens, MCF7, 72 h, read-out: A490 (control =1) ave
structure (smiles),measurement,setting,value
"C=C1CCC2C(C)(CCC=C(C)C)C(O)CCC2(C)C1Cc1c(OC)oc(C)c(C)c1=O (stereo not shown) [Compound 15, viridoxin A hydrolysate]",viability at 0.1 µM,MCF-7 cells; [2],82%
same,viability at 1 µM,MCF-7 cells; [2],121%
same,viability at 10 µM,MCF-7 cells; [2],61.8%
same,A490 ave,"MCF-7 cells; 0.1 µM (DMSO 0.002%), control 1.064",0.873
same,A490 ave,"MCF-7 cells; 1 µM (DMSO 0.02%), control 1.104",1.333
same,A490 ave,"MCF-7 cells; 10 µM (DMSO 0.2%), control 1.049",0.649
same,Luminescence Raw1,"DL1 cells; 0.04 µM, replicate 1",2784909
same,"% viability, viability 1",DL1 cells; 0.04 µM,203.06%
same,Luminescence Raw2,"DL1 cells; 0.04 µM, replicate 2",3009267
same,"% viability, viability 2",DL1 cells; 0.04 µM,219.419%
same,Luminescence Raw1,"DL1 cells; 0.2 µM, replicate 1",2743429
same,"% viability, viability 1",DL1 cells; 0.2 µM,200.035%
same,Luminescence Raw2,"DL1 cells; 0.2 µM, replicate 2",2853442
same,"% viability, viability 2",DL1 cells; 0.2 µM,208.057%
same,Luminescence Raw1,"DL1 cells; 1 µM, replicate 1",2896366
same,"% viability, viability 1",DL1 cells; 1 µM,211.186%
same,Luminescence Raw2,"DL1 cells; 1 µM, replicate 2",3157521
same,"% viability, viability 2",DL1 cells; 1 µM,230.228%
same,Luminescence Raw1,"DL1 cells; 4 µM, replicate 1",726344
same,"% viability, viability 1",DL1 cells; 4 µM,52.9608%
same,Luminescence Raw2,"DL1 cells; 4 µM, replicate 2",1230470
same,"% viability, viability 2",DL1 cells; 4 µM,89.7188%
same,Luminescence Raw1,"DL1 cells; 10 µM, replicate 1",281027
same,"% viability, viability 1",DL1 cells; 10 µM,20.4909%
same,Luminescence Raw2,"DL1 cells; 10 µM, replicate 2",344848
same,"% viability, viability 2",DL1 cells; 10 µM,25.1443%
same,Luminescence Raw1,"DL1 cells; 20 µM, replicate 1",282109
same,"% viability, viability 1",DL1 cells; 20 µM,20.5698%
same,Luminescence Raw2,"DL1 cells; 20 µM, replicate 2",296532
same,"% viability, viability 2",DL1 cells; 20 µM,21.6214%
same,IC50,DL1 cells; average±SEM,6.1 ± 1.57 µM
same,IC50,"DL1 cells; read-out: IC50 (1), replicate 1",4.53 µM
same,IC50,"DL1 cells; read-out: IC50 (2), replicate 2",7.66 µM
same,IC50,"DL1 cells; read-out: IC50 Average, average of two replicates",6.1 µM
same,Luminescence Raw1,l(2)mbn cells; 0.04 µM,5571583
same,"% viability, viability 1",l(2)mbn cells; 0.04 µM,88.7303%
same,Luminescence Raw2,l(2)mbn cells; 0.04 µM,5591430
same,"% viability, viability 2",l(2)mbn cells; 0.04 µM,89.0464%
same,Luminescence Raw1,l(2)mbn cells; 0.2 µM,6221854
same,"% viability, viability 1",l(2)mbn cells; 0.2 µM,99.0862%
same,Luminescence Raw2,l(2)mbn cells; 0.2 µM,5568336
same,"% viability, viability 2",l(2)mbn cells; 0.2 µM,88.6786%
same,Luminescence Raw1,l(2)mbn cells; 1 µM,6094827
same,"% viability, viability 1",l(2)mbn cells; 1 µM,97.0632%
same,Luminescence Raw2,l(2)mbn cells; 1 µM,5439516
same,"% viability, viability 2",l(2)mbn cells; 1 µM,86.6271%
same,Luminescence Raw1,l(2)mbn cells; 4 µM,5005443
same,"% viability, viability 1",l(2)mbn cells; 4 µM,79.7142%
same,Luminescence Raw2,l(2)mbn cells; 4 µM,4514031
same,"% viability, viability 2",l(2)mbn cells; 4 µM,71.8882%
same,Luminescence Raw1,l(2)mbn cells; 10 µM,362955
same,"% viability, viability 1",l(2)mbn cells; 10 µM,5.78%
same,Luminescence Raw2,l(2)mbn cells; 10 µM,319326
same,"% viability, viability 2",l(2)mbn cells; 10 µM,5.085%
same,Luminescence Raw1,l(2)mbn cells; 20 µM,109116
same,"% viability, viability 1",l(2)mbn cells; 20 µM,1.738%
same,Luminescence Raw2,l(2)mbn cells; 20 µM,229184
same,"% viability, viability 2",l(2)mbn cells; 20 µM,3.65%
same,IC50,"l(2)mbn cells; cytotoxicity, average±SEM",5.23 ± 0.19 µM
same,IC50,"l(2)mbn cells; read-out: IC50 (1), cytotoxicity, replicate 1",5.42 µM
same,IC50,"l(2)mbn cells; read-out: IC50 (2), cytotoxicity, replicate 2",5.04 µM
same,IC50,"l(2)mbn cells; read-out: IC50 Average, cytotoxicity, average of two replicates",5.23 µM
same,EC50,[1],8.51 nM
same,Cytotoxicity,MAGI cells,>10 µM
